Earlier results, collected in patent US12128086B2, “Formulations and methods of use for alpha connexin c-terminal (ACT) peptides” (XEQUEL BIO, INC., priority 2012, dated 2024).
Read-outs that look alike come from different tables or passages of the source.

Columns and labels:
[1] = system: full thickness excisional wounds; settings: adult mice; 100 μM of ACT1 peptide; 5 mm full thickness excisional wounds
[2] = system: full thickness excisional wounds; settings: pigs; 100 μM of ACT1 peptide; 5 mm full thickness excisional wounds

Biotin-Ahx-Arg-Gln-Pro-Lys-lle-Trp-Phe-Pro-Asn-Arg-Arg-Lys-Pro-Trp-Lys-Lys-Arg-Pro-Arg-Pro-Asp-Asp-Leu-Glu-lle-OH [Peptide 328967]
Wound healing versus vehicle control (in words) [1]: closed faster, appeared less swollen and inflamed, and healed with a smoother and less discolored appearance | Wound healing versus vehicle control (in words) [2]: closed faster, appeared less swollen and inflamed, and healed with a smoother and less discolored appearance
